# Experimental data from patent US20230365602A1, “COMPOUND FOR USE IN THE TREATMENT OF PROTOZOAL DISEASES AND PROCESS FOR PRODUCTION OF SAID COMPOUND” (QUADREL S.R.L., priority 2020, published 2023).
# Entries after “also recorded” stand apart in the source; their conditions may differ. Where two headings read alike, the source gives them in different places.
# Key:
# T. b. brucei GVR35 = experiment: Stage II HAT mice model, live imaging; format: in vivo
# [1] = test system: L. infantum (MHOM/MA/67/ITMAP-263) intracellular amastigotes; experiment: Anti-parasitic activity against L. infantum intracellular amastigotes (infection with axenic amastigotes luciferase positive); format: cell-based; conditions: Table 1; for inhibition at 10 µM / IC50: Leishmania infantum; for inhibition at 10 µM: read-out: Single Dose Assay 10 μM Mean Inhibitory Activity (%) ± SD; for IC50: read-out: Dose Response Curves IC50 ± SD; for Selectivity Index CC50/IC50 or NOAEL/IC50: THP-1 toxicity / L. infantum IC50
# [2] = test system: PMA-differentiated THP-1 cells; experiment: Toxicity MTT assay in PMA-differentiated THP-1 cells; format: cell-based, human; conditions: for CC50: read-out: Toxicity CC50 ± SD or NOAEL
# Text: (§1) The in vitro antiparasitic activity against L. infantum (MHOM/MA/67/ITMAP-263) and the toxicity against THP-1 macrophages is presented in Table 1.
# [3] = as above; format: cell-based, human; conditions: human, PMA-differentiated THP-1 cells (macrophages); for CC50: THP-1 macrophages, Table 1, read-out: Toxicity CC50 ± SD or NOAEL; for IC50: Table 4b, read-out: Cytotoxicity THP-1 (IC50)
# Text: as §1
# CYP2D6 = CYP2D6 (Homo sapiens, UniProt P10635); experiment: Early toxicity: CYP2D6 inhibition; format: in vitro ADME; conditions: Table 4a; for inhibition at 10 µM: human
# CYP2D6, sequence (P10635 whole entry): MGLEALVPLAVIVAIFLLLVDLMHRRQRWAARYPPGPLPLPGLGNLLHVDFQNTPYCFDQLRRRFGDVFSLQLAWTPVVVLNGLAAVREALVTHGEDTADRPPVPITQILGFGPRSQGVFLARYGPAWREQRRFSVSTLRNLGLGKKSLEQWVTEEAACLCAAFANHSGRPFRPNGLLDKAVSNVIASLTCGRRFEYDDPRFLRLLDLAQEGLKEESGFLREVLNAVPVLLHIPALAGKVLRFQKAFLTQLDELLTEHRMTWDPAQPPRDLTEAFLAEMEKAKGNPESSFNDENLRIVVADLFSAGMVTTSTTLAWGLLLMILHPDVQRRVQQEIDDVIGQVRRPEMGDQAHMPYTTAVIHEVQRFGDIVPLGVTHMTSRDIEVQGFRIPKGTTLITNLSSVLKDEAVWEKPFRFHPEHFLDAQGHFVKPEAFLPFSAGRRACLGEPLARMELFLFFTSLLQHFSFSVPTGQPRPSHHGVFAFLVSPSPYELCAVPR
# hERG channel = hERG channel (Homo sapiens, UniProt Q12809); experiment: Early toxicity: hERG inhibition; conditions: for inhibition at 10 µM: human
# hERG channel, sequence (Q12809 whole entry): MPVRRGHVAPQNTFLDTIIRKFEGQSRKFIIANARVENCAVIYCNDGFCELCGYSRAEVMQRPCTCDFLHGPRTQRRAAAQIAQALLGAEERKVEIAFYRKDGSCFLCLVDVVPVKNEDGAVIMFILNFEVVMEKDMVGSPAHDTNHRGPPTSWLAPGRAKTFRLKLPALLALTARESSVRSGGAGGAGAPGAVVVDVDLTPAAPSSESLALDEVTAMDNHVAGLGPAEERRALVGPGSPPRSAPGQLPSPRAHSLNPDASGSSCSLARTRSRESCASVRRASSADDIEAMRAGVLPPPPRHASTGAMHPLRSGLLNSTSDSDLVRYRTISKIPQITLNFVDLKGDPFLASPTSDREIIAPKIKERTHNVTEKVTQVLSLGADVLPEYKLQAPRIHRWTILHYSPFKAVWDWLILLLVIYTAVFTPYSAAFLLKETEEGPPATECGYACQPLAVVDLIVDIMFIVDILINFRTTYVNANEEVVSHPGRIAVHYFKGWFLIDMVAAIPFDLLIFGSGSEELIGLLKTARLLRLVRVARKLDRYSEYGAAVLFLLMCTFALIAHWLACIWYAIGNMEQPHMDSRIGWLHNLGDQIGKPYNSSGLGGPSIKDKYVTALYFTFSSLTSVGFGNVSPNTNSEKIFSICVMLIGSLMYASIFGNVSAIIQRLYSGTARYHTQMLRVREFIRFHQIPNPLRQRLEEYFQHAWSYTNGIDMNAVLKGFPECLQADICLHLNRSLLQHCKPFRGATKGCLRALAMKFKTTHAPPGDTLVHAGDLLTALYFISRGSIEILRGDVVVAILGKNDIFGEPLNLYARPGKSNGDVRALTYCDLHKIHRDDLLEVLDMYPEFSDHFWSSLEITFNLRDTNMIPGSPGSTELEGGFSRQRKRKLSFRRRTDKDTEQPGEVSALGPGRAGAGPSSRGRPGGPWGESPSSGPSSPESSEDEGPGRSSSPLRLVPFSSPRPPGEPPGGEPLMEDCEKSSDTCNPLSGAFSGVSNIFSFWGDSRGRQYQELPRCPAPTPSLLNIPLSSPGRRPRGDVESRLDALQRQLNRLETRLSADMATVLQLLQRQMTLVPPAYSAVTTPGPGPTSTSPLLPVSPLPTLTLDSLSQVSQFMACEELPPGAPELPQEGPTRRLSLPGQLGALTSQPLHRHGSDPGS
# [4] = test system: T. b. brucei L427 WT Blood-Stream Form; experiment: Anti-parasitic activity against T. b. brucei blood-stream form (resazurin 72 h assay); format: cell-based; conditions: Table 2; for inhibition at 10 µM: Trypanosoma brucei, read-out: Single Dose Assay 10 μM Mean Inhibitory Activity (%) ± SD
# W1-38 = experiment: Early toxicity: W1-38 cell growth; format: cell-based; conditions: 10 μM
# mitochondria = experiment: Early toxicity: mitochondrial toxicity; format: cell-based; conditions: for % mitochondrial toxicity: 10 μM, 100% mitotoxic, 0% not mitotoxic; for mitochondrial toxicity: Table 4b
# CYP2C9 = CYP2C9 (Homo sapiens, UniProt P11712); experiment: Early toxicity: CYP2C9 inhibition; format: in vitro ADME; conditions: mean ± SD, Table 4a; for inhibition at 10 µM: human
# CYP2C9, sequence (P11712 whole entry): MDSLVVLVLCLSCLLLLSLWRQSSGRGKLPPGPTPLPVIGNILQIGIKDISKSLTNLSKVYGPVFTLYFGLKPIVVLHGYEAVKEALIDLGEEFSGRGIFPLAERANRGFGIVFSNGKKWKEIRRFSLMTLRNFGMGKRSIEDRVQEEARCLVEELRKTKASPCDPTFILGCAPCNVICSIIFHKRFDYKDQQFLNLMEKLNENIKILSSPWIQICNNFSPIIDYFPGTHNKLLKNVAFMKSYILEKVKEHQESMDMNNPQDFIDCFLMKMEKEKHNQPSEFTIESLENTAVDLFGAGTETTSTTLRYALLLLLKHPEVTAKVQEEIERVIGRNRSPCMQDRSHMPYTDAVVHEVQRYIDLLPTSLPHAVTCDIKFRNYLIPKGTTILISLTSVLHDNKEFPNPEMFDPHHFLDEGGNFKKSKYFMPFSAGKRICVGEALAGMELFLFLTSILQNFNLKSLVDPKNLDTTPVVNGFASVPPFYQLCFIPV
# CYP2C19 = CYP2C19 (Homo sapiens, UniProt P33261); experiment: Early toxicity: CYP2C19 inhibition; format: in vitro ADME; conditions: Table 4a; for inhibition at 10 µM: human
# CYP2C19, sequence (P33261 whole entry): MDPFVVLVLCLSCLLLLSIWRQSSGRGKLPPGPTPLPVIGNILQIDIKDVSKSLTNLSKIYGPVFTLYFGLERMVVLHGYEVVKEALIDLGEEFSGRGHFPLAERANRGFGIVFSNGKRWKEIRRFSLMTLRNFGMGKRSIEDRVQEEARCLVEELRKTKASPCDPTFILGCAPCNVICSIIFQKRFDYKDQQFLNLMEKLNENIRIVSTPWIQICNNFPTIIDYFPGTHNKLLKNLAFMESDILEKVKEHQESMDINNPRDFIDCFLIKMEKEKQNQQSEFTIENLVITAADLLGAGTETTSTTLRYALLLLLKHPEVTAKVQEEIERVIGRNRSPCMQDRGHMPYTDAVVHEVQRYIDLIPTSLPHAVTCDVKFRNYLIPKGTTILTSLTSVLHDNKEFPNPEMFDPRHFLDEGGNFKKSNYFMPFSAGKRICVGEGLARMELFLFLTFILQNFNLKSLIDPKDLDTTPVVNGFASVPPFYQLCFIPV
# A549 = experiment: Early toxicity: A549 cell growth; format: cell-based; conditions: 10 μM; 100% = not cytotoxic, 0% = cytostatic, −100% = cytotoxic
# CYP3A4 = CYP3A4 (Homo sapiens, UniProt P08684); experiment: Early toxicity: CYP3A4 inhibition; format: in vitro ADME; conditions: Table 4a; for inhibition at 10 µM: human, read-out: % inhibition CYP3A4
# CYP3A4, sequence (P08684 whole entry): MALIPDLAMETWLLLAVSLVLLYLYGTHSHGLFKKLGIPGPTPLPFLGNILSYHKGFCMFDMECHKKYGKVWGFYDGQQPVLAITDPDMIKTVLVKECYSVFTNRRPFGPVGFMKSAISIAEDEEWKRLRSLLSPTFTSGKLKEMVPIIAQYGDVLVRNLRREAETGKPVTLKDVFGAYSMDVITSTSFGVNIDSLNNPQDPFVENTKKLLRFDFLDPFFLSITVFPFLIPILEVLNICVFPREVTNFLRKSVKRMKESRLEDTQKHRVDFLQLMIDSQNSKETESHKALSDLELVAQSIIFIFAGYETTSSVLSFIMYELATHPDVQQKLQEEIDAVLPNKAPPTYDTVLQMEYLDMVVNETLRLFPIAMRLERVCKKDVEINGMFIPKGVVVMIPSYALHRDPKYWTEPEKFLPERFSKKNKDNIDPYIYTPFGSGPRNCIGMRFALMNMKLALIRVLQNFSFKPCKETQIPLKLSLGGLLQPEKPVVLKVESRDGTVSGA
# CYP1A2 = target: T1, CYP1A2 (Homo sapiens, UniProt P05177); experiment: Early toxicity: CYP1A2 inhibition; format: in vitro ADME; conditions: mean ± SD, Table 4a; for inhibition at 10 µM: human
# T1 sequence (P05177 1-516): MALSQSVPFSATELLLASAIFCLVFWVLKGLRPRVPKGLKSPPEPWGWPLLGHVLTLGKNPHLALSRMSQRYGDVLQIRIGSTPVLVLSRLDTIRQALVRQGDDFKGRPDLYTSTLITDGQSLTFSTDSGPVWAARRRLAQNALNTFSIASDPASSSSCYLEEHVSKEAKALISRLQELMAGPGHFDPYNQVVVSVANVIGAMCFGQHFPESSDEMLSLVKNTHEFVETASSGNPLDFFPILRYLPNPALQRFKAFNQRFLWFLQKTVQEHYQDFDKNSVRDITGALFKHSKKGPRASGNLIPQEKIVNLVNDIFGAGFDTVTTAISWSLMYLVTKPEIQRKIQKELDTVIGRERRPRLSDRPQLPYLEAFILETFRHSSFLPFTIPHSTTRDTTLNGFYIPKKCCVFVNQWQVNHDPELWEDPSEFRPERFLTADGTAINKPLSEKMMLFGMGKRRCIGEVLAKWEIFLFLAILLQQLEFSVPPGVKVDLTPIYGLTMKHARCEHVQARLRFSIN
# [5] = Snapshot pharmacokinetics in plasma after oral gavage; format: in vivo, mice; conditions: mouse, plasma, po, healthy BALB/c mice, 20 mg/kg gavage, Table 13
# Description: Pharmacology of 5-cyclopentadecylpentyl (2-(trimethylammonio)ethyl) phosphate (19) in mice.
# Blood samples were collected from the tail vein at 0, 0.5, 0.75, 1, 3, 24 and 72 hours into heparinized tubes. Moreover, biodistribution of the molecule, 72h after administration, was determined in several organs of the treated mice, namely brain, liver, spleen, kidney, heart and bone marrow. […] J Chromatogr B, 865: 55-62) by liquid chromatography mass spectrometry (LC-MS/MS).
SMILES,inhibition at 10 µM ([1]; 10 μM) [%],IC50 [1] [µM],Selectivity Index CC50/IC50 or NOAEL/IC50 [1],CC50 ([2]; Table 2) [µM],CC50 [3] [µM],"Flag for Interference, hERG (hERG channel; Table 4b)",% mitochondrial toxicity (mitochondria) [%],% cell growth A549 (A549) [%],inhibition at 10 µM (CYP2D6; mean ± SD) [%],inhibition at 10 µM (hERG channel) [%],IC50 [3] [µM],inhibition at 10 µM (CYP2C9) [%],inhibition at 10 µM (CYP2C19; mean ± SD) [%],"inhibition at 10 µM (CYP3A4; 10 μM, mean ± SD) [%]",inhibition at 10 µM (CYP1A2) [%],inhibition at 10 µM ([4]; 10 μM) [%],mitochondrial toxicity (mitochondria),further results
"Nc1nc(N)nc(Nc2ccc([As]3SCC(CO)S3)cc2)n1 (centres unmarked) [melarsoprol, reference compound]",,,,,,,,,,,,,,,,,,"infection outcome (words) (T. b. brucei GVR35; 10 mg/kg/day IP, 7 days of treatment): able to clear the infection"
"C[N+](C)(C)CCOP(=O)([O-])OCCCCC1CCCCCCCCCCC1 [Compound 16, 4-cyclododecylbutyl (2-(trimethylammonio)ethyl) phosphate]",87 ± 17,0.86 ± 0.33,>116,> 100,> 100,,,,,,,,,,,,,
"C[N+](C)(C)CCCOP(=O)([O-])OCCCCCC1CCCCCCCCCCCCCC1 [Compound 20, 5-cyclonentadecyloentyl (3-(trimethylammonio)propyl) phosohate]",,,,> 100,,(no),−3.82 ± 5.49,104.50 ± 4.67,,,,,,,,,,"% inhibition CYP2D6 (CYP2D6; 10 μM, mean ± SD): 44.01 ± 3.51%; % inhibition hERG (hERG channel; 10 μM, Table 4b): 4.56 ± 15.55%; Single Dose Assay 10 μM Mean Inhibitory Activity (%) ± SD ([4]; 10 μM): 24 ± 10%; % cell growth W1-38 (W1-38): 98.77 ± 10.61%; Single Dose Assay 10 μM Mean Inhibitory Activity (%) ± SD ([1]; 10 μM): 53 ± 6%; CC50 ([2]; THP-1 macrophages, Table 1): > 100 µM; IC50 ([2]; Table 4b, read-out: Cytotoxicity THP-1 (IC50)): > 100 µM; % inhibition CYP2C9 (CYP2C9; 10 μM): 15.44 ± 0.53%; % inhibition CYP2C19 (CYP2C19; 10 μM, mean ± SD): 52.28 ± 5.17%; % inhibition CYP3A4 (CYP3A4; 10 μM, mean ± SD): 22.83 ± 5.05%; % inhibition CYP1A2 (CYP1A2; 10 μM): 10.14 ± 3.87%"
"C[N+](C)(C)CCOP(=O)([O-])OCCC1CCCCCCCCCCC1 [Compound 27, 2-cyclododecylethyl (2-(trimethylammonio)ethyl) phosphate]",36 ± 5,,,,> 100,(no),113.87 ± 2.81,126.46 ± 6.12,6.92 ± 4.21,-4.11 ± 10.4,> 100,13.7 ± 6.52,11 ± 5.72,24.8 ± 3.15,22.2 ± 1.59,,,
"C[N+](C)(C)CCOP(=O)([O-])OCCCC=C1CCCCCCCCCCC1 [Compound 11, 4-cyclododecylidenebutyl (2-(trimethylammonio)ethyl) phosphate]",76 ± 22,2.59 ± 0.94,>38.6,> 100,> 100,,,,,,,,,,,,,
"C[N+](C)(C)CCCOP(=O)([O-])OCCCCC=C1CCCCCCCCCCCCCC1 [Compound 15, 5-cyclopentadecylidenepentyl (3-(trimethylammonio)propyl) phosphate]",49 ± 1,,,> 100,> 100,(no),1.08 ± 12.57,112.20 ± 6.11,32.4 ± 2.88,15.5 ± 4.66,> 100,15.6 ± 6.17,42 ± 7.27,23.4 ± 1.94,9.44 ± 2.84,14 ± 5,,% cell growth W1-38 (W1-38): 124.02 ± 7.42%
"C[N+](C)(C)CCOP(=O)([O-])OCCC1CCCCCCCCCCCCCC1 [Compound 28, 2-cyclopentadecylethyl (2-(trimethylammonio)ethyl) phosphate]",70 ± 7,1.12 ± 0.45,>90,,> 100,(no),119.09 ± 14.82,120.79 ± 0.63,37.7 ± 3.27,39 ± 5.84,> 100,9.6 ± 4.6,21.3 ± 3.7,27.8 ± 1.95,15.6 ± 2.12,,exhibit mitochondrial toxicity,
"C[N+](C)(C)CCOP(=O)([O-])OCCCCCC1CCCCCCCCCCC1 [Compound 17, 5-cyclododecylpentyl (2-(trimethylammonio)ethyl) phosphate]",96 ± 2,0.6 ± 0.2,>166,> 100,> 100,(no),110.46 ± 13.08,121.61 ± 8.94,48.9 ± 2.97,26.3 ± 12.9,> 100,10.3 ± 6.3,35.9 ± 4.97,55.3 ± 4.28,18.9 ± 0.69,21 ± 15,exhibit mitochondrial toxicity,CYP2D6 interaction / inhibition (CYP2D6; 10 μM): interact; also recorded: significant inhibition; activity against T. b. brucei blood-stream form [4]: unexpectedly high activity in the low micromolar range; AUC(0-inf) ([5]; read-out: AUC (0-∞)): 11300 ng·h/mL; AUC(0-inf) ([5]; read-out: AUC (0-∞) (μM h/mL)): 26.9 µM·h; Cmax ([5]; read-out: Cmax): 4.88 µM; Cmax ([5]; read-out: Cmax (μg/mL)): 2.05 µg/mL; Tmax ([5]; read-out: tmax): 3 h; half-life ([5]; read-out: t½ (converted)): 6.9 h; CYP2C19 interaction / inhibition (CYP2C19; 10 μM): interact; also recorded: significant inhibition; CYP3A4 interaction (CYP3A4): interact
"N=C(N)c1ccc(OCCCCCOc2ccc(C(=N)N)cc2)cc1 [pentamidine, reference compound]",,,,,,,,,,,,,,,,,,infection in the brain (T. b. brucei GVR35; 5 mg/kg/day IP): not able to clear infection in the brain
"C[N+](C)(C)CCOP(=O)([O-])OCCCCC=C1CCCCCCCCCCC1 [Compound 12, 5-cyclododecylidenepentyl (2-(trimethylammonio)ethyl) phosphate]",95 ± 2,0.9 ± 0.7,>111,> 100,> 100,(no),113.57 ± 12.08,130.21 ± 5.63,15.1 ± 2.98,-2.04 ± 7.61,> 100,1.76 ± 1.59,11.2 ± 5.4,35.7 ± 6.01,10.2 ± 5.03,8 ± 8,exhibit mitochondrial toxicity,
